Results on 10 compounds are retold here after PMC4993649 (ChemMedChem, 2016).

Like-named read-outs stand apart in the source and are kept apart here.

The term Ki denotes a measure of affinity in units of concentration, obtained from inhibition or displacement. Low readings indicate a stronger hold on the target, high ones a looser hold on the target. Broadly, the IC50 is the concentration at which inhibition is half-maximal.

Assay [1] has as its target T1, purified full-length human ERβ (Homo sapiens, UniProt Q92731). The conditions noted are these: for β/α ratio (of RBA values): ERβ RBA / ERα RBA.
Assay [2] concerns the target ERβ/C369-biotin-SaTb with SRC3 NRID-fluorescein (Homo sapiens, UniProt Q92731). The assay is described as follows: tr-FRET ligand titration into ERβ and SRC3. Type of assay: biochemical. The conditions noted are these: read-out: Ligand coactivator recruitment potency (Ligand titration) EC50; ligand titrated into 1 nM ERβ LBD, 0.25 nM SaTb, 100 nM SRC3-fluorescein; mean ± SD.

Assay [3] has as its target T1, purified full-length human ERβ. The assay is described as follows: biochemical.
The subject of the next assay is U87 glioma cells. The experiment in a line: Cell viability assay, U87. The conditions noted are these: 96 h, read-out: Effects on cell growth IC50, U87.
A further assay relates to HCT colon cancer cells. The experiment in a line: Cell viability assay, HCT. The conditions noted are these: 96 h, read-out: Effects on cell growth IC50, HCT.
The next assay relates to LoVo colon cancer cells. The experiment in a line: Cell viability assay, LoVo. The conditions noted are these: 96 h, read-out: Effects on cell growth IC50, LoVo.
A further assay has as its system MCF7 breast cancer cells. The experiment in a line: Cell viability assay, MCF7. The conditions noted are these: Homo sapiens, MCF7, 96 h, read-out: Effects on cell growth IC50, MCF7.
For assay [4], the system named is MDA-MB-231 breast cancer cells. The assay is described as follows: Cell viability assay, MDA-MB-231. The conditions noted are these: Homo sapiens, MDA-MB-231, 96 h, read-out: Effects on cell growth IC50, MDA231.
Assay [5] deals with SkBr3 breast cancer cells. The assay is described as follows: Cell viability assay, SkBr3. The conditions noted are these: Homo sapiens, SK-BR-3, 96 h, read-out: Effects on cell growth IC50, SkBr3.
In assay [6] the target is ERβ LBD/C369-biotin with SRC3 NRID-fluorescein (Homo sapiens, UniProt Q92731). The assay is described as follows: tr-FRET SRC3 titration into ERβ-ligand complex. The conditions noted are these: E2 = 100.
ERβ LBD/C369-biotin with SRC3 NRID-fluorescein, sequence (Q9Y6Q9 627-829): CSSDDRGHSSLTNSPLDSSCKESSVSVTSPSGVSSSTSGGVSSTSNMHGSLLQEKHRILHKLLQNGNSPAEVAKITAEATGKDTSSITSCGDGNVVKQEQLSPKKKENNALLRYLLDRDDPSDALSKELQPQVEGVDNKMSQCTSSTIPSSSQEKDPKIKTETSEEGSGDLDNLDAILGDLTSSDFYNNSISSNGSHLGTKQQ
ERβ LBD/C369-biotin with SRC3 NRID-fluorescein, sequence (Q92731 256-503): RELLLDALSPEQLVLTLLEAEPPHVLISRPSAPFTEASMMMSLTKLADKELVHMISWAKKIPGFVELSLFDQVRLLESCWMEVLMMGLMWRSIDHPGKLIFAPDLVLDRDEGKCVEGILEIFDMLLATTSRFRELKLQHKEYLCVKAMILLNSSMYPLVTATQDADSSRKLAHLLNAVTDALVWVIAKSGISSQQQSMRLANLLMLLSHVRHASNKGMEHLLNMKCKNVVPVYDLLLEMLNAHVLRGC

T1 sequence (Q92731 whole entry, the tested form may be a part): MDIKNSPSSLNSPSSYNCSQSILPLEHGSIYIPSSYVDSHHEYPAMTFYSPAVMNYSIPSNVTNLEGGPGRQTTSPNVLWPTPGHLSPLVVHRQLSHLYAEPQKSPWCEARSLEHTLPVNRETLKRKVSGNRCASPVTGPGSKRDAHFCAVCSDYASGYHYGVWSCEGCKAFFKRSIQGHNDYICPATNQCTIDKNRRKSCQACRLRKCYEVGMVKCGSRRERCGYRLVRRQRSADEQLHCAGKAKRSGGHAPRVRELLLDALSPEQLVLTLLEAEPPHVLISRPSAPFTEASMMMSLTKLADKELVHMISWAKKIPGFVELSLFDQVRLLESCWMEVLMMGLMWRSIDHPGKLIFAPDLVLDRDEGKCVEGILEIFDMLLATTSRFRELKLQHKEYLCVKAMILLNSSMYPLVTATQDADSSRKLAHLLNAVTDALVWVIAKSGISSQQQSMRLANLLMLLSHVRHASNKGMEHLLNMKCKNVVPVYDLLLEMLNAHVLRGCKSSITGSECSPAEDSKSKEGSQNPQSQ
ERβ/C369-biotin-SaTb with SRC3 NRID-fluorescein, sequence (Q9Y6Q9 627-829): as the sequence (Q9Y6Q9 627-829) above
ERβ/C369-biotin-SaTb with SRC3 NRID-fluorescein, sequence (Q92731 256-503): as the sequence (Q92731 256-503) above

Regarding `COc1ccc(-c2ccc(O)c3c2CC/C3=N\O)cc1` [1b, (E)-7-hydroxy-4-(4-methoxyphenyl)-2,3-dihydro-1H-inden-1-one oxime], the “β/α ratio (of RBA values)” value in assay [1] stood at 3.0.

For `Cc1cc(-c2ccc(O)c3c2CC/C3=N\O)ccc1O` [1e, (E)-7-hydroxy-4-(4-hydroxy-3-methylphenyl)-2,3-dihydro-1H-inden-1-one oxime], in [1], the “β/α ratio (of RBA values)” value is 6.3.

As for `O/N=C1\CCc2c(-c3ccc(O)c(Cl)c3)ccc(O)c21` [1g, (E)-4-(3-chloro-4-hydroxyphenyl)-7-hydroxy-2,3-dihydro-1H-inden-1-one oxime], the “β/α ratio (of RBA values)” value in assay [1] was 8.0.

For the compound `COc1ccc(-c2ccc(O)c3c2CC/C3=N\O)cc1Cl` [1h, (E)-4-(3-chloro-4-methoxyphenyl)-7-hydroxy-2,3-dihydro-1H-inden-1-one oxime], the “β/α ratio (of RBA values)” value in [1] was 0.50.

Turning to `COc1ccc(-c2ccc(O)c3c2CC/C3=N\O)cc1F` [1d, (E)-4-(3-fluoro-4-methoxyphenyl)-7-hydroxy-2,3-dihydro-1H-inden-1-one oxime], the “β/α ratio (of RBA values)” value in assay [1] was determined as 0.8.

Consider `O/N=C1\CCc2c(-c3ccc(O)c(F)c3)ccc(O)c21` [1c, (E)-4-(3-fluoro-4-hydroxyphenyl)-7-hydroxy-2,3-dihydro-1H-inden-1-one oxime], for which the EC50 in assay [2] is 0.0195 ± 0.0026 µM. Also, in assay [1], the “β/α ratio (of RBA values)” value is 33. The compound further showed a Ki in assay [3] of 0.0106 µM. In addition, the IC50 in the assay with U87 glioma cells (Homo sapiens, U-87 MG) was 32.3 ± 1.1 µM; in the assay with HCT colon cancer cells (Homo sapiens), 10.8 ± 1.2 µM; in the assay on LoVo colon cancer cells (Homo sapiens, LoVo), 14.5 ± 3.1 µM; in the assay with MCF7 breast cancer cells, 23.2 ± 1.4 µM; in assay [4], 8.1 ± 1.3 µM; in assay [5] it was 130 ± 9.7 µM. Besides, the “Efficacy % (completeness of the curves relative to E2)” value in assay [6] was 88%.

For the compound `COc1ccc(-c2ccc(O)c3c2CC/C3=N\O)cc1C` [1f, (E)-7-hydroxy-4-(4-methoxy-3-methylphenyl)-2,3-dihydro-1H-inden-1-one oxime], the “β/α ratio (of RBA values)” value in assay [1] was found to be 1.0.

Consider `O=C1C[C@@H](c2ccc(O)cc2)Oc2cc(O)ccc21` [Liquiritigenin, reference compound], for which the IC50 in the assay on U87 glioma cells (human glioma, mean ± SD) stood at 115 ± 11.7 µM; in the assay with HCT colon cancer cells (human colon cancer, mean ± SD), 75.3 ± 7.1 µM; in the assay with LoVo colon cancer cells (human colon cancer, mean ± SD) it was 101 ± 10.2 µM.

In the case of `O/N=C1\CCc2c(-c3ccccc3)ccc(O)c21` [1i, (E)-7-hydroxy-4-phenyl-2,3-dihydro-1H-inden-1-one oxime], the EC50 in [2] was determined as 0.393 ± 0.124 µM. The “β/α ratio (of RBA values)” value in assay [1] amounted to 89. Further, the “decrease of ERβ affinity compared to 1a” value in assay [1] (from RBA values) is on record as 24 fold. In addition, the Ki in assay [3] worked out at 0.282 µM. For the same compound, in assay [6], the “Efficacy % (completeness of the curves relative to E2)” value is given as 72%.

For the compound `O/N=C1\CCc2c(-c3ccc(O)cc3)ccc(O)c21` [1a, (E)-7-hydroxy-4-(4-hydroxyphenyl)-2,3-dihydro-1H-inden-1-one oxime], the EC50 in assay [2] turned out to be 0.0142 ± 0.003 µM. For the same compound, in assay [1], the “β/α ratio (of RBA values)” value is on record as 16. In [3], this compound registered a Ki of 0.0117 µM. The IC50 with U87 glioma cells (Homo sapiens, U-87 MG) amounted to 150.7 ± 1.2 µM; with HCT colon cancer cells (Homo sapiens), 61.5 ± 8.8 µM; in the assay with LoVo colon cancer cells (Homo sapiens, LoVo) it was 19.8 ± 2.1 µM; in the assay with MCF7 breast cancer cells it was 70.1 ± 12.4 µM; in [4], 42.3 ± 1.1 µM; in assay [5], 140 ± 11.2 µM. The “Efficacy % (completeness of the curves relative to E2)” value in [6] was 93%.
